# From patent publication US20210300943A1, “OGA INHIBITOR COMPOUNDS” (Janssen Pharmaceutica NV, priority 2018, published 2021)
# Molecular target: T1, recombinant human Meningioma Expressed Antigen 5 (MGEA5), also referred to as O-GlcNAcase (OGA) (Homo sapiens, UniProt O60502)
# T1 construct: Full length OGA enzyme was purchased at OnGene (cat #TP322411); purchased OnGene (so in the source)
# T1 sequence (O60502 1-916): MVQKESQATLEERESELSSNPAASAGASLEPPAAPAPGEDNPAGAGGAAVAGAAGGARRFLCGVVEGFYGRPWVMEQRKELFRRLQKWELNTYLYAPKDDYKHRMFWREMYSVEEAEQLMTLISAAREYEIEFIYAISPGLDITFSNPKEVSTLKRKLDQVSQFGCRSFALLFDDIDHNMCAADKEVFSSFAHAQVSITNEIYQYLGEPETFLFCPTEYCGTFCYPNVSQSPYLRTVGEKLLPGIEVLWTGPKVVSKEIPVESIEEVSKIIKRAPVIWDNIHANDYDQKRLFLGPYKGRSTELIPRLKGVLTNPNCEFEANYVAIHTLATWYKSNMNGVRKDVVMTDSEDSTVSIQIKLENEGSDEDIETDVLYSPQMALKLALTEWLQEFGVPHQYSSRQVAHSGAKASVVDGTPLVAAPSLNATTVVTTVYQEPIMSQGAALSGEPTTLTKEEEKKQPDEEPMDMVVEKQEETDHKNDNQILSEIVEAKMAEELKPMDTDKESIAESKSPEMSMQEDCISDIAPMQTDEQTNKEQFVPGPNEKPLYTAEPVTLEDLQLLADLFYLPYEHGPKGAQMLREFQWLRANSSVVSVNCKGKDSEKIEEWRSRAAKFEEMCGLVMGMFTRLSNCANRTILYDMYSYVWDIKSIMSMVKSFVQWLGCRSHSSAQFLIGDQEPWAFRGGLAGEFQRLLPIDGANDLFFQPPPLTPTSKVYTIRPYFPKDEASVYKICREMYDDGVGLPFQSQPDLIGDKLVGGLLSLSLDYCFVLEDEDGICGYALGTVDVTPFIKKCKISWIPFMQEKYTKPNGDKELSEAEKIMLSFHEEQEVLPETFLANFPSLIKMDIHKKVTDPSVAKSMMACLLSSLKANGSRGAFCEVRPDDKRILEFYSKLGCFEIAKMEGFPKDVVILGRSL
# Assay: OGA biochemical assay (inhibition of FM-GlcNAc hydrolysis, fluorescence)
# Details: for Emax: maximal effect, read-out: Enzymatic Emax (%); for IC50: read-out: Enzymatic hOGA, pIC50 (converted)
# How it was run: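 Full-length recombinant OGA (2 nM) pre-incubated with compound 60 min at room temperature, then FM-GlcNAc (100 µM final) added in citrate/phosphate buffer pH 7.2 with 0.005% Tween-20. After 6 h at room temperature, stopped with carbonate pH 11.0; fluorescein read at 485/538 nm; IC50 and Hill coefficient from curve fit.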
SMILES,Emax,IC50
"Cc1cc(OC[C@H]2CCCN(C(C)c3nc4c(cc3F)OCCO4)C2)cc(C)n1 (single isomer, unassigned) [Product 155]",99%,1.26 nM
"Cc1cc([C@H]2CCCN(C(C)c3cnc4c(c3)OCCN4)C2)cc(C)n1 (single isomer, unassigned) [Product 135]",101%,7.94 nM
